The values that follow come from ChEMBL document CHEMBL1799987, “In vivo and in vitro SAR of tetracyclic MAPKAP-K2 (MK2) inhibitors. Part II” (Bioorg Med Chem Lett, 2010).

In data set [1] the test system is Rattus norvegicus. In words: Antiarthritic activity in rat assessed as inhibition of antigen-induced paw swelling at 100 mg/kg, po BID. It is filed as functional, organism-based. Also on record: dose 100 mg/kg.
For data set [2], the system named is Rattus norvegicus. In words: Toxicity in antigen-induced arthritic rat model assessed as body weight reduction at 100 mg/kg, po BID. It is filed as organism-based. Also on record: dose 100 mg/kg, route oral. Particulars: in vivo.
For data set [3], the system named is Mus musculus. Put plainly: Antiarthritic activity in DBA/1 mouse assessed as inhibition of collagen-induced joint damage at 100 mg/kg, po BID. It is filed as functional, organism-based. Further details: dose 100 mg/kg.
Data set [4] is described as follows: Plasma concentration in collagen-induced arthritic DBA/1 mouse model at 100 mg/kg, po BID measured 6 hrs post last dose. It is filed as ADME, organism-based. Further details: dose 100 mg/kg, route oral.
Data set [5] deals with Mus musculus. In words: Antiarthritic activity in DBA/1 mouse assessed as inhibition of collagen-induced paw swelling at 100 mg/kg, po BID. The class given is functional, organism-based. Further details: dose 100 mg/kg.
A short description of data set [6]: Clearance in rat at 1 mg/kg, po. The class given is ADME, organism-based. Further details: dose 1 mg/kg, route oral. Particulars: in vivo.
Data set [7] is described as follows: Plasma concentration in antigen-induced arthritic rat model at 100 mg/kg, po BID measured 16 hrs post last dose. It is filed as ADME, organism-based. Also on record: dose 100 mg/kg, route oral.
Data set [8] is described as follows: Plasma concentration in collagen-induced arthritic DBA/1 mouse model at 100 mg/kg, po BID measured 2 hrs post last dose. It is filed as ADME, organism-based. Also on record: dose 100 mg/kg, route oral.
The test system of data set [9] is Plasma. In words: Plasma concentration in OF1 mouse at 100 mg/kg, po. The class given is ADME, organism-based. Further details: dose 100 mg/kg, route oral. Particulars: in vivo.
Data set [10] relates to Mus musculus. Put plainly: Antiarthritic activity in DBA/1 mouse assessed as inhibition of collagen-induced proteoglycan loss at 100 mg/kg, po BID. Further details: dose 100 mg/kg. It is filed as functional, organism-based.
Data set [11] has as its system Mus musculus. In words: Antiarthritic activity in DBA/1 mouse assessed as inhibition of collagen-induced inflammatory cell infiltration at 100 mg/kg, po BID. The class given is functional, organism-based. Further details: dose 100 mg/kg.
A short description of data set [12]: Cmax in rat at 1 mg/kg, po. It is filed as ADME, organism-based. Also on record: dose 1 mg/kg, route oral. Particulars: in vivo.
Data set [13] in a line: Plasma concentration in antigen-induced arthritic rat model at 100 mg/kg, po BID measured 2 hrs post last dose. It is filed as ADME, organism-based. Also on record: dose 100 mg/kg, route oral.
The subject of data set [14] is PBMC. In words: cells. Particulars: Homo sapiens.
Description: Inhibition of LPS-induced TNFalpha production in human PBMC preincubated for 30 mins measured after 3 hrs of LPS stimulation
Data set [15] in a line: AUC in rat at 1 mg/kg, po. Particulars: plasma. Further details: dose 1 mg/kg, route oral. It is filed as ADME, organism-based.
Data set [16] in a line: Plasma concentration in antigen-induced arthritic rat model at 100 mg/kg, po BID measured 6 hrs post last dose. It is filed as ADME, organism-based. Also on record: dose 100 mg/kg, route oral.
Data set [17] concerns Rattus norvegicus. Put plainly: Volume of distribution at steady state in rat at 1 mg/kg, po. The class given is ADME, organism-based. Also on record: dose 1 mg/kg, route oral. Particulars: in vivo.
Data set [18] is filed under the species Mus musculus. Put plainly: animal or person. Particulars: OF1, po, 1 h, read-out: INH.
Description: Inhibition of LPS-induced TNFalpha production in OF1 mouse at 100 mg/kg, po after 1 hr by ELISA
A short description of data set [19]: Thermodynamic solubility of the compound at pH 6.8. It is filed as physicochemical. Particulars: buffer, read-out: Therm_solubility.
A short description of data set [20]: Oral bioavailability in rat at 1 mg/kg. It is filed as ADME, organism-based. Particulars: in vivo.
Data set [21] can be described thus: Half life in rat at 1 mg/kg, po. Particulars: in vivo. The class given is ADME, organism-based. Further details: dose 1 mg/kg, route oral.
Data set [22] deals with Mus musculus. In words: Toxicity in collagen-induced arthritic DBA/1 mouse model assessed as body weight reduction at 100 mg/kg, po BID. It is filed as organism-based. Also on record: dose 100 mg/kg, route oral. Particulars: in vivo.
For data set [23], the system named is Mus musculus. In words: Antiarthritic activity in DBA/1 mouse assessed as inhibition of collagen-induced joint erosion at 100 mg/kg, po BID. It is filed as functional, organism-based. Also on record: dose 100 mg/kg.

Structures are written as SMILES. Values after ≈ are worked out from the molar mass of the structure shown. Active and inactive are the calls of the source. The rule behind the calls is not given here.

Consider `O=C1NC2(CC2)Cc2[nH]c3c(c21)CCc1cnc(-c2ccc(F)nc2)cc1-3`, for which the result in data set [1], in [3], in data set [5], in [10], in data set [11] and in [23] was Active. Further, the Activity result in [2] and in [22] was “Non-toxic” in each case. The concentration at 6 h in [4] was determined as 2.4 µM; in data set [16], 9.8 µM. In addition, the CL/F in data set [6] turned out to be 12 mL/min/kg. The concentration at 16 h in data set [7] stood at 0.5 µM. Also, the results for the concentration at 2 h in data set [8] and in data set [13] were 16 µM and 11.7 µM, respectively. The compound also showed a concentration in data set [9] of 30 µM. This compound also had a Cmax in data set [12] of 0.105 µM. In data set [14], this compound came in with an IC50 of 300 nM. This compound also displayed an AUC in [15] of 2 µM·h. This compound registered a Vdss in data set [17] of 1.9 L/kg. The inhibition in vivo at 100 mg/kg in data set [18] came out at 96%. The solubility thermodynamic in [19] is 9 µM (≈ 3.24 µg/mL). The compound also returned a bioavailability in data set [20] of 24%. Also, the half-life in data set [21] is 1.3 h.

What is called CL/F is the apparent clearance, not corrected for the fraction that reaches the circulation. The term Cmax denotes the highest concentration seen after dosing. In general, IC50 refers to the concentration that gives 50% inhibition. As a reminder, the AUC is the area under the concentration-time curve, a measure of exposure. A higher AUC goes with high exposure. Usually bioavailability stands for dose-corrected exposure relative to a reference, in per cent. Low readings indicate little systemic uptake, high ones much systemic uptake. In general, half-life refers to how long it takes for the measured level to halve. Low values mean rapid decline, high ones slow decline.
